In patent US20260083865A1, “PROSTATE SPECIFIC MEMBRANE ANTIGEN (PSMA) LIGANDS AND USE THEREOF” (priority 2022, published 2026):
Numbered stars: 1 amine (or outer) side, 2 acyl side, 3 side chain; on linkers, the order of the positions; unused ones are H or OH. Bridge positions count the residues as written; N and C are the ends. Square brackets hold non-standard residues; d marks the D form. Peptide text beside a SMILES is read from it. * marks the point of attachment. Acetyl(1-DOTA-4-piperidyl) = O=C(O)CN1CCN(CC(=O)O)CCN(CC(=O)N2CCC(CC(=O)*)CC2)CCN(CC(=O)O)CC1; X7 = O=C(O)CN1CCN(CC(=O)O)CCN(CC(=O)NC2CCN(CC(=O)*)CC2)CCN(CC(=O)O)CC1; DOTA = O=C(O)CN1CCN(CC(=O)O)CCN(CC(=O)*)CCN(CC(=O)O)CC1; Tyr(3-I) = N[C@@H](Cc1ccc(O)c(I)c1)C(=O)O; Phe(4-Cl) = N[C@@H](Cc1ccc(Cl)cc1)C(=O)O; Propanoyl(3-SO2NH2) = NS(=O)(=O)CCC(=O)*; Arg(Me) = CNC(=N)NCCC[C@H](N)C(=O)O; Dap(CONH2) = NC(=O)NC[C@H](N)C(=O)O; Ethylenediamine = C(CN[*:2])N[*:1]; Hyp = O=C(O)[C@@H]1C[C@@H](O)CN1; X4 = O=C(CN1CCC(N[*:1])CC1)[*:2]; X5 = O=C(c1ccc(CN[*:1])nc1)[*:2]; Lys(Me) = CNCCCC[C@H](N)C(=O)O; Tle = CC(C)(C)[C@H](N)C(=O)O; Deg = CCC(N)(CC)C(=O)O; Aib = CC(C)(N)C(=O)O; Guanidino = N=C(N)N*; X8 = O=C(CC1CCNCC1)*

What was measured:
[1] = molecular target: T1, PSMA-expressing C4-2 cells (Homo sapiens, UniProt Q04609); test: FACS binding assay (competition with 50 nM PSM-0183); conditions: FACS binding, C4-2 cells, competition with 50 nM PSM-0183; category; read-out: pIC50 [C4-2] CAT (converted)
T1 construct: PSMA-expressing C4-2 cells (ATCC, Cat. No. CRL-3314) were cultured in RPMI-1640; host or cells: C4-2 cells
T1 sequence (Q04609 whole entry): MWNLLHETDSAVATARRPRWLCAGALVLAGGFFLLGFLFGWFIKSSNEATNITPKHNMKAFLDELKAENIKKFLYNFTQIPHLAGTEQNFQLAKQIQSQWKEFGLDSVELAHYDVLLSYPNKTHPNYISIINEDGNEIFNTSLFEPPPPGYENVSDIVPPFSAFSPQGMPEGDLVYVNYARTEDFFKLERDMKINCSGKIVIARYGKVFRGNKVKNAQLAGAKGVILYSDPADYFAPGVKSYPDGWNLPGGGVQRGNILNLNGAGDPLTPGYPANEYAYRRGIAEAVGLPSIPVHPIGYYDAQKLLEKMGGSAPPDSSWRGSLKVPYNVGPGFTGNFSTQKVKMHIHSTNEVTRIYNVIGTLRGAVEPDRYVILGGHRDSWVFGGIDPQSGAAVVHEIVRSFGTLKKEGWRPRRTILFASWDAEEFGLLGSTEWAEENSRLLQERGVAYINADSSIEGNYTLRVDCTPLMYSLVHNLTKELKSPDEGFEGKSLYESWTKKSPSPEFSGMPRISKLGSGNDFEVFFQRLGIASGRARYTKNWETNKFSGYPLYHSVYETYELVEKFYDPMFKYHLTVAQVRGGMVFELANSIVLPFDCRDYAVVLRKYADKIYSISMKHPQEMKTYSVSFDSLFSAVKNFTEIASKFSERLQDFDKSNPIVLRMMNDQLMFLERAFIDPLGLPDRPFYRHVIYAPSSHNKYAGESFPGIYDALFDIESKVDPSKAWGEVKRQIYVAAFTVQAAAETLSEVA
Method: In order to determine binding of compounds according to the present invention to PSMA-expressing cells, a FACS binding assay was established.
PSMA-expressing C4-2 cells (ATCC, Cat. No. CRL-3314) were cultured in RPMI-1640 (Pan Biotech, Cat. No. P04-18050) including 10% fetal calf serum (Biochrom) and 100 U/ml penicillin and 100 μg/mL streptomycin (Sigma, Cat. No. P0781). Cells were detached with Accutase (Biolegend, Cat. No. BLD-423201) and washed in FACS buffer (PBS (Sigma, Cat. No. D8537) including 1% fetal calf serum). Cells were diluted in FACS buffer to a final concentration of 500,000 cells per mL. 200 μL of the cell suspension were transferred to a u-shaped non-binding 96-well plate (Greiner Bio-One, Cat. No. 650901) and cells were washed in ice-cold FACS buffer.
For IC50 determination, C4-2 cells were incubated with 50 nM PSM-0183 (Ac-Thr-Aib-Phe[Cys-Lys-Arg-Aib-Asn-Cys]-Tle-Thr-Asp-Ttds-Ttds-AF488N3K-NH2) in the presence of increasing concentrations of test compounds at 4° C. for 1 hour. After two wash steps with ice-cold FACS buffer, cells were analyzed in an Attune NxT flow cytometer. Median fluorescence intensities (MFI) of the FITC/AF488-channel were calculated by Attune NxT software. MFI values were plotted against peptide concentration and four parameter logistic (4PL) curve fitting and IC50/pIC50 calculations were performed using ActivityBase software (IDBS).

[2] = molecular target: T2, Fc-fusion protein of human PSMA (hPSMA-Fc) (Homo sapiens, UniProt Q04609); test: Surface plasmon resonance assay (Biacore T200, single cycle kinetic); assay type: binding; conditions: SPR, hPSMA-Fc, single cycle kinetic, 25° C.; category; read-out: pKD CAT (converted)
T2 construct: purchased Acro Biosystems PSA-H5264
T2 sequence (Q04609 44-750 limits assumed): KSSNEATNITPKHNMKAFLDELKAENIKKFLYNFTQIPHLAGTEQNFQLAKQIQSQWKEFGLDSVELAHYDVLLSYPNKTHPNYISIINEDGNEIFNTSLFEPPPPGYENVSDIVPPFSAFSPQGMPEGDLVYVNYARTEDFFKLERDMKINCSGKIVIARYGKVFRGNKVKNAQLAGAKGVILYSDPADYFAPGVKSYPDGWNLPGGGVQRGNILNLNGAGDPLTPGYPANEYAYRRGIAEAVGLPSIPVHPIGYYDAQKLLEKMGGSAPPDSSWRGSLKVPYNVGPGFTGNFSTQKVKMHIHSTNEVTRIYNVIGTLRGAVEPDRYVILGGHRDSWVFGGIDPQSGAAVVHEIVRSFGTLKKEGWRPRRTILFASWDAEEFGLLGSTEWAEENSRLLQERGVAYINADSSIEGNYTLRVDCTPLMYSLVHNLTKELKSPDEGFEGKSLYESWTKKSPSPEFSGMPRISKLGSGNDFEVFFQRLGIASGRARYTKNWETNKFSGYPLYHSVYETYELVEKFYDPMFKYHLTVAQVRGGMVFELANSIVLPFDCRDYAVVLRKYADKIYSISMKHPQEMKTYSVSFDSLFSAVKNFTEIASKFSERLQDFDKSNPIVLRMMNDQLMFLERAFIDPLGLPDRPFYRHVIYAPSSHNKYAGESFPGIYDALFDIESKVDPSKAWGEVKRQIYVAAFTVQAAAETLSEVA
Method: Surface plasmon resonance (SPR) studies were performed using a Biacore™ T200 SPR system. Briefly, polarized light is directed towards a gold-labeled sensor surface, and minimum intensity reflected light is detected. The angle of reflected light changes as molecules bind and dissociate.
Fc-fusion protein of human PSMA (hPSMA-Fc, Acro Biosystems, Cat #PSA-H5264) was captured on a Fc-capture chip (Biacore™ CM5 sensor chip coated with ˜300 RU of an Fc-binding peptide). hPSMA-Fc was diluted in Running Buffer (HBST, 0.1% DMSO) to a final concentration of 100 nM and then flushed over the Fc-capture chip to immobilized ˜1000 RUs.
Stock solutions of test compounds were prepared by dissolving each compound in DMSO. DMSO stock solution were diluted 1:1000 in Running Buffer without DMSO. Further sequential dilutions were made with Running Buffer containing 0.1% DMSO. SPR binding analyses were performed in Single Cycle Kinetic (SCK) mode at 25° C. Flow cell coated with the Fc-binding peptide only served as reference flowcell. After each SCK run, hPSMA-Fc was removed with 10 mM glycine buffer, pH 1.5.
In between every three SCK measurements, a blank run with Running Buffer instead of test compound was included to correct for baseline drifts (double blanking method).
Table 5 describes the protocol steps for Fc-fusion target capturing and assessment of the binding kinetics.
For each test compound, SPR raw data in the form of resonance units (RU) were plotted as sensorgrams using the Biacore™ T200 control software. The signal from the blank sensorgram was subtracted from that of the test compound sensorgram (blank corrected). The blank corrected sensorgram was corrected for baseline drift by subtracting the sensorgram of a SCK run without the test compound (running buffer only). The dissociation constant (KD) was calculated from Blank-normalized SPR data using the 1:1 Langmuir binding model from the Biacore™ Insight Evaluation software. The pKD value (negative decadic logarithm of dissociation constant) was calculated using Microsoft Excel.

Row | IC50 [1] | Kd [2] | Structure (SMILES)
1 | < 200 nM | 12.6 to 126 nM | CC(=O)N[C@H](C(=O)NC(C)(C)C(=O)N[C@@H](Cc1ccccc1)C(=O)N[C@H]1CSSC[C@@H](C(=O)N[C@H](C(=O)N[C@H](C(=O)N[C@@H](CC(=O)O)C(N)=O)[C@@H](C)O)C(C)(C)C)NC(=O)[C@H](CC(N)=O)NC(=O)[C@H](C)NC(=O)[C@H](CNC(N)=O)NC(=O)[C@H](CCCCN)NC1=O)[C@@H](C)O [PSM-0180, Ac-Thr-Aib-Phe-[Cys-Lys-Gln-Ala-Asn-Cys]-Tle-Thr-Asp-NH2] (Ac-T[Aib]FCK[Dap(CONH2)]ANC[Tle]TD-NH2; disulfide 4-9)
2 | < 200 nM | < 12.6 nM | CC(=O)N[C@H](C(=O)NC(C)(C)C(=O)N[C@@H](Cc1ccccc1)C(=O)N[C@H]1CSSC[C@@H](C(=O)N[C@H](C(=O)N[C@H](C(=O)N[C@@H](CC(=O)O)C(N)=O)[C@@H](C)O)C(C)(C)C)NC(=O)[C@H](CC(N)=O)NC(=O)[C@@H]2C[C@@H](O)CN2C(=O)[C@H](CCCNC(=N)N)NC(=O)[C@H](CCCCN)NC1=O)[C@@H](C)O [PSM-0181, Ac-Thr-Aib-Phe-[Cys-Lys-Arg-Hyp-Asn-Cys]-Tle-Thr-Asp-NH2] (Ac-T[Aib]FCKR[Hyp]NC[Tle]TD-NH2; disulfide 4-9)
3 | 1260 to 3160 nM | > 501 nM | CCCC[C@H](NC(=O)[C@@H]1CSSC[C@H](NC(=O)[C@H](Cc2ccccc2)NC(=O)[C@H](C)NC(=O)[C@@H](NC(C)=O)[C@@H](C)O)C(=O)N[C@@H](CCCCN)C(=O)N[C@@H](CCCNC(=N)N)C(=O)N[C@@H](C)C(=O)N[C@@H](CC(N)=O)C(=O)N1)C(=O)N[C@@H](C(=O)N[C@H](CC(=O)O)C(N)=O)[C@H](C)O [PSM-0182, Ac-Thr-Ala-Phe-[Cys-Lys-Arg-Ala-Asn-Cys]-Nle-thr-Asp-NH2]
4 | < 200 nM | 12.6 to 126 nM | C[C@@H](O)[C@H](NC(=O)CN1CCN(CC(=O)O)CCN(CC(=O)O)CCN(CC(=O)O)CC1)C(=O)NC(C)(C)C(=O)N[C@@H](Cc1ccccc1)C(=O)N[C@H]1CSSC[C@@H](C(=O)N[C@H](C(N)=O)C(C)(C)C)NC(=O)[C@H](CC(N)=O)NC(=O)C(C)(C)NC(=O)[C@H](CCCNC(=N)N)NC(=O)[C@H](CCCCN)NC1=O [PSM-0184, DOTA-Thr-Aib-Phe-[Cys-Lys-Arg-Aib-Asn-Cys]-Tle-NH2] ({DOTA}-T[Aib]FCKR[Aib]NC[Tle]-NH2; disulfide 4-9)
5 | < 200 nM | < 12.6 nM | CC(=O)NCc1ccc(C(=O)NC(C)(C)C(=O)N[C@@H](Cc2ccc(Cl)cc2)C(=O)N[C@H]2CSSC[C@@H](C(=O)N[C@H](C(=O)NCCNC(=O)CN3CCN(CC(=O)O)CCN(CC(=O)O)CCN(CC(=O)O)CC3)C(C)(C)C)NC(=O)[C@H](CC(N)=O)NC(=O)C(C)(C)NC(=O)[C@H](CCCNC(=N)N)NC(=O)[C@H](CCCCN)NC2=O)cn1 [PSM-0186, Ac-Pamp-Aib-Pcf-[Cys-Lys-Arg-Aib-Asn-Cys]-Tle-en-DOTA] (Ac-[X5][Aib][Phe(4-Cl)]CKR[Aib]NC[Tle]-{Ethylenediamine-DOTA}; disulfide 4-9)
6 | < 200 nM | < 12.6 nM | CCC(CC)(NC(=O)[C@@H](NC(C)=O)[C@@H](C)O)C(=O)N[C@@H](Cc1ccccc1)C(=O)N[C@H]1CSSC[C@@H](C(=O)N[C@H](C(=O)N[C@H](C(N)=O)[C@@H](C)O)C(C)(C)C)NC(=O)[C@H](CC(N)=O)NC(=O)C(C)(C)NC(=O)[C@H](CCCNC(=N)N)NC(=O)[C@H](CCCCN)NC1=O [PSM-0187, Ac-Thr-Deg-Phe-[Cys-Lys-Arg-Aib-Asn-Cys]-Tle-Thr-NH2] (Ac-T[Deg]FCKR[Aib]NC[Tle]T-NH2; disulfide 4-9)
7 | < 200 nM | < 12.6 nM | C[C@@H](O)[C@H](NC(=O)[C@@H](NC(=O)[C@@H]1CSSC[C@H](NC(=O)[C@H](Cc2ccc(Cl)cc2)NC(=O)C(C)(C)NC(=O)CCS(N)(=O)=O)C(=O)N[C@@H](CCCCN)C(=O)N[C@@H](CCCNC(=N)N)C(=O)N[C@@H](CCCCNC(=O)CN2CCC(NC(=O)CN3CCN(CC(=O)O)CCN(CC(=O)O)CCN(CC(=O)O)CC3)CC2)C(=O)N[C@@H](CC(N)=O)C(=O)N1)C(C)(C)C)C(N)=O [PSM-0188, SaPr-Aib-Pcf-[Cys-Lys-Arg-Lys(DOTA-APAc)-Asn-Cys]-Tle-Thr-NH2] ({Propanoyl(3-SO2NH2)}-[Aib][Phe(4-Cl)]CKRK(X7)NC[Tle]T-NH2; disulfide 3-8)
8 | < 200 nM | < 12.6 nM | CC(=O)N[C@H](C(=O)NC(C)(C)C(=O)N[C@@H](Cc1ccc(Cl)cc1)C(=O)N[C@H]1CSSC[C@@H](C(=O)N[C@H](C(=O)N[C@H](C(N)=O)[C@@H](C)O)C(C)(C)C)NC(=O)[C@H](CC(N)=O)NC(=O)C(C)(C)NC(=O)[C@H](CCC(=O)NC(=N)N)NC(=O)[C@H](CCCCN)NC1=O)[C@@H](C)O [PSM-0189, Ac-Thr-Aib-Pcf-[Cys-Lys-Gln(Gu)-Aib-Asn-Cys]-Tle-Thr-NH2] (Ac-T[Aib][Phe(4-Cl)]CKE(Guanidino)[Aib]NC[Tle]T-NH2; disulfide 4-9)
9 | < 200 nM | < 12.6 nM | CC(=O)N[C@H](C(=O)NC(C)(C)C(=O)N[C@@H](Cc1ccc(Cl)cc1)C(=O)N[C@H]1CSSC[C@@H](C(=O)N[C@H](C(=O)N[C@H](C(=O)N[C@H](CCCCNC(=O)CC2CCN(C(=O)CN3CCN(CC(=O)O)CCN(CC(=O)O)CCN(CC(=O)O)CC3)CC2)C(N)=O)[C@@H](C)O)C(C)(C)C)NC(=O)[C@H](CC(N)=O)NC(=O)C(C)(C)NC(=O)[C@H](CCCNC(=N)N)NC(=O)[C@H](CCCCN)NC1=O)[C@@H](C)O [PSM-0190, Ac-Thr-Aib-Pcf-[Cys-Lys-Arg-Aib-Asn-Cys]-Tle-Thr-lys(DOTA-Cmp)-NH2] (Ac-T[Aib][Phe(4-Cl)]CKR[Aib]NC[Tle]T[dK](Acetyl(1-DOTA-4-piperidyl))-NH2; disulfide 4-9)
10 | < 200 nM | < 12.6 nM | CC(=O)N[C@H](C(=O)NC(C)(C)C(=O)N[C@@H](Cc1ccccc1)C(=O)N[C@H]1CSSC[C@@H](C(=O)N[C@H](C(=O)N[C@H](C(=O)NC2CCN(CC(=O)N[C@H](CCCCNC(=O)CN3CCN(CC(=O)O)CCN(CC(=O)O)CCN(CC(=O)O)CC3)C(N)=O)CC2)[C@@H](C)O)C(C)(C)C)NC(=O)[C@H](CC(N)=O)NC(=O)C(C)(C)NC(=O)[C@H](CCCNC(=N)N)NC(=O)[C@H](CCCCN)NC1=O)[C@@H](C)O [PSM-0191, Ac-Thr-Aib-Phe-[Cys-Lys-Arg-Aib-Asn-Cys]-Tle-Thr-APAc-lys(DOTA)-NH2] (Ac-T[Aib]FCKR[Aib]NC[Tle]T[X4][dK](DOTA)-NH2; disulfide 4-9)
11 | > 3160 nM | > 501 nM | CNCCCC[C@@H]1NC(=O)[C@@H](NC(=O)[C@H](Cc2ccc(O)c(I)c2)NC(=O)C(C)(C)NC(=O)[C@@H](NC(=O)CC2CCNCC2)[C@@H](C)O)CSSC[C@@H](C(=O)N[C@H](C(=O)N[C@H](C(N)=O)[C@@H](C)O)C(C)(C)C)NC(=O)[C@H](CC(N)=O)NC(=O)C(C)(C)NC(=O)[C@H](CCCNC(=N)NC)NC1=O [PSM-0192, H-Cmp-Thr-Aib-Miy-[Cys-Lys(Me)-Arg(Me)-Aib-Asn-Cys]-Tle-Thr-NH2] (X8-T[Aib][Tyr(3-I)]C[Lys(Me)][Arg(Me)][Aib]NC[Tle]T-NH2; disulfide 4-9)
